Here are results for 87 compounds from a melting point compilation (Tetko et al.; mined from patent text by program, amines drawn as free bases though some values may be those of a salt).

On to `Clc1ccc2nc(-c3ccccc3)n(CCCN3CCN(C(c4ccccc4)c4ccccc4)CC3)c2c1`, for which the melting point (as a rule, the temperature of the solid-liquid transition) was determined as 198 °C.

Compound `CCOC(=NC(=O)c1cc(C(F)(F)F)cc(C(F)(F)F)c1)N1Cc2ccccc2-c2ccccc2C1` gave a melting point of 129 to 130 °C.

In turn, `O=C1NC(=O)C(c2c[nH]c3ccccc23)N1` (configuration not stated) came in with a melting point of 229 to 230 °C.

On to `Cc1ccc2c(n1)N(CCCN1CCCC1)c1ccccc1N(C)C2=O`, for which the melting point fell in the range of 134 to 136 °C.

The compound `CCc1cccc(CC)c1NC(=O)NC1(c2ccccc2)CCC1` had a melting point of 227 to 230 °C.

`COc1cc(-c2ccc(C#N)cc2)cc(-c2nc3cc(C#N)ccc3[nH]2)c1O` yielded a melting point of 334 to 335 °C.

Compound `Fc1ccc(F)c(CC2CCN([C@H]3CC[C@H](c4ccc5c(c4)OCO5)CC3)CC2)c1` returned a melting point of 96 to 97 °C.

In the case of `CCCCCCCCCCCC(=O)CC(=O)OC`, the melting point is 29 °C.

In the case of `O=C(O)c1cc(I)cc2c(=O)c3ccccc3[nH]c12`, the melting point is more than 400 °C.

In turn, `CC1(C)OC(=S)Nc2ccc(-c3ccc(C#N)s3)cc21` had a melting point of 242 to 244 °C.

For the compound `CCCC1CC(NCC)=C(c2cccc(C(F)(F)F)c2)C1=O` (configuration not stated), the melting point amounted to 120 °C.

For `CCc1ccc(C2C(C#N)=C(CC(C)C)NC(C)=C2C(=O)OC(C)(C)C)cc1` (configuration not stated), the melting point lay within 165 to 166 °C.

In turn, `Cc1ccc(-c2csc(C(=O)Nc3nnn[nH]3)n2)cc1` yielded a melting point of 276 to 278 °C.

On to `O=[N+]([O-])c1cc2c(c3c([N+](=O)[O-])cccc13)C(CCl)CN2` (configuration not stated), for which the melting point is 130 to 131 °C.

As for `CCC(=O)N(CC)c1ccc(C(=O)C=CN(C)C)cc1`, the melting point was 75 to 77 °C.

Compound `N#Cc1ccc(OCC(O)CN2CC3CC(C2)CN(C(=O)OCCCl)C3)cc1` (configuration not stated) showed a melting point of 104 to 105 °C.

`COc1nc(C)nc(NC(=O)NS(=O)(=O)c2ccccc2OC(F)F)n1` had a melting point of 140 to 141 °C.

For the compound `CCN(CC)c1ccncc1NC(=S)NC1CCCCC1`, the melting point was 119 to 121 °C.

On to `CC1(CO)C(O)CCC2(C)C1CCC1CC3CC12CCC3(O)CO` (configuration not stated), for which the melting point was in the range of 290 to 300 °C.

Compound `O=C(OCN1C(=O)C2CCCN2S1(=O)=O)c1c(Cl)cccc1Cl` (configuration not stated) showed a melting point of 92 to 93.5 °C.

Regarding `COc1cc(N(C)C(C)C)ccc1CN1C(=O)C(C)(c2ccccc2Cl)c2cc(Cl)ccc21` (configuration not stated), the melting point is 156 °C.

`COC(=O)c1c(C)[nH]c(C)c1C1=CC(=O)c2ccccc2C1=O`: the melting point is 209 to 210 °C.

`O=C1NC(=O)c2c1c(-c1ccccc1Cl)cc1c2c2cc(O)ccc2n1CCC(O)CO` (configuration not stated): the melting point lay within 263 to 267 °C.

Consider `CC(C)NC(=O)CCC(=NNC(N)=S)c1ccccc1`, for which the melting point was 66 to 71 °C.

Take `CNC(=O)n1nc(Oc2ncc(C(F)(F)F)cc2Cl)cc1C`: the melting point was in the range of 85 to 86 °C.

Turning to `OCc1cc(N2CCCCC2)ncn1`, the melting point fell in the range of 70 to 72 °C.

`COc1ccc(-c2coc3ccc(C(=O)NNC(C)=O)cc23)cc1`: the melting point was in the range of 219 to 220 °C.

Turning to `O=Cc1ccc(-c2ccc(-c3ccc(C=O)o3)nc2)cc1`, the melting point fell in the range of 217 to 219 °C.

In turn, `COc1ccc(-c2ccc(Cl)cc2C#N)cc1C=O` came in with a melting point of 187 to 189 °C.

Consider `CC(=O)OCC1CCn2c(c(C3=C(c4coc5ccccc45)C(=O)NC3=O)c3ccccc32)C1` (configuration not stated), for which the melting point lay in the range of 234 to 237 °C.

The compound `COP(=O)(OC)[C@H](C)NC(=O)[C@H](C)N` yielded a melting point of 103 to 106 °C.

On to `CNc1nc(C)c(C(=O)C(C#N)=CN(C)C)s1`, for which the melting point fell in the range of 245 to 246 °C.

`CC(C)(C)c1cccc(C[C@H](N)[C@H](O)c2cccc(Cl)c2)c1` (racemic) registered a melting point of 102 to 103 °C.

On to `CC(Oc1ccc(-c2cccc(S(=O)(=O)NCC(F)(F)F)c2)cc1)C(O)CCc1cccnc1` (configuration not stated), for which the melting point fell in the range of 47 to 48 °C.

In turn, `COC(=O)c1ccc(OC)c(Nc2cc(Cl)cc(Cl)c2)c1` registered a melting point of 134 to 135 °C.

For the compound `CC1(C)CCC(C)(C)c2cc(C(O)C#Cc3ccc(C(=O)O)cc3)ccc21` (configuration not stated), the melting point lay within 146 to 147 °C.

`CCc1cccc2c3c([nH]c12)C(CC)(CCF)OCC3` (configuration not stated) gave a melting point of 118 to 119 °C.

As for `NS(=O)(=O)c1ccc(-n2nc(C(F)(F)F)cc2-c2ccc(-c3ccco3)cc2)cn1`, the melting point fell in the range of 140 to 170 °C.

As to `C=Cc1cccc2c1-c1ccc3c(c1C(C1(C)CC=CCC1)O2)C(C)=CC(C)(C)N3` (configuration not stated), the melting point lay within 198 to 201 °C.

For the compound `CCOC(=O)C(=Cc1ccccn1)C(=O)c1ccc(F)cc1`, the melting point lay within 128 to 129 °C.

Regarding `CCCn1nc(-c2ccc(O)c(F)c2)c2cccc(-c3ccccc3)c21`, the melting point fell in the range of 177 to 178 °C.

Take `CCOC(=O)C(Cc1cc(Cl)c(Sc2ccc(OC)c(Cc3ccc(OC)nc3)c2)c(Cl)c1)(NC(C)=O)C(=O)OCC`: the melting point is 170 to 171 °C.

`CC(C)(SCC(=O)O)C(NS(=O)(=O)c1ccc(Oc2ccc(F)cc2)cc1)C(=O)O` (configuration not stated): the melting point is 69 °C.

On to `COC(=O)c1cnc2c3cc(NC(=O)CC(C)(C)C)ccc3ncn2c1=O`, for which the melting point lay within 247 to 249 °C.

The compound `N#Cc1ccc(N(Cc2ccc(O)c(Cl)c2)n2cnnc2)cc1-c1ccoc1` yielded a melting point of 192 to 193 °C.

`CCCc1cc(-c2ccccc2)ccc1C(=O)O` came in with a melting point of 108 °C.

As for `Nc1ccc(N2CCN(CCCC3CCCC3)C2=O)cc1`, the melting point lay within 97 to 99 °C.

As for `N#Cc1ccccc1-c1ccc2[nH]c(Cc3ccccc3)nc2c1`, the melting point was in the range of 133 to 140 °C.

`COC(=O)c1snc(-c2cc(OC)c(Cl)cc2F)c1N` came in with a melting point of 121 to 124 °C.

`CS(=O)c1cc(C(C)(C)C)c(O)c(C(C)(C)C)c1` (configuration not stated) gave a melting point of 171 to 173 °C.

`Cc1c(Cc2ccc(C(C)C)cc2)c2c(c(C)c1NC(=O)CC(C)(C)C)CC(C)(C)O2` came in with a melting point of 170 to 171 °C.

With `CC(Oc1ccc(-n2cnc3cc(C(F)(F)F)ccc32)cc1)C(=O)O` (configuration not stated), the melting point is 181 to 182 °C.

Compound `CNC(=O)Oc1ccc(N=C(C)c2ccccc2O)c(C)c1` came in with a melting point of 133 to 138 °C.

`C#CC1(O)CCC2C3CCC4CC=CCC4C3CCC21C` (configuration not stated) registered a melting point of 108 to 109 °C.

Turning to `CCOC(=O)c1ccccc1-c1cc(-c2cccc(C(F)(F)F)c2)no1`, the melting point lay within 28 to 30 °C.

In the case of `O[C@@H]1CN=C(c2ccccc2F)O[C@H]1c1ccccc1` (racemic), the melting point came out at 142 °C.

The compound `O=C1Nc2cc(CN3CCN(c4ccc(Cl)cc4)CC3)cnc2N2CCC[C@@H]12` showed a melting point of 265 to 268 °C.

In turn, `Cc1ccc(-n2cccc2C=O)c(Cl)c1` had a melting point of 111 to 112 °C.

`CCOC(=O)c1ccn2nccc2n1`: the melting point lay within 114 to 115 °C.

`O=C(O)c1ncc2[nH]c3c([N+](=O)[O-])cc([N+](=O)[O-])cc3c2n1` yielded a melting point of 269 to 272 °C.

Take `CC(C(O)C(C)(C)Cc1ccc(Cl)c(OC(F)(F)F)c1)n1cncn1` (configuration not stated): the melting point lay in the range of 109 to 110 °C.

`CN(C(=O)c1nnc2ccccc2c1O)c1ccccn1` yielded a melting point of 237 to 239 °C.

In turn, `NC(=O)c1cccc2c3c(cc([N+](=O)[O-])c12)N(C(=O)C(F)(F)F)CC3CCl` (configuration not stated) gave a melting point of 272 to 277 °C.

In turn, `CCOC(=O)c1cnc(-c2cc(N)ccc2OCC)[nH]c1=O` gave a melting point of 107 to 110 °C.

Compound `COc1cc2ncnc(Nc3ccc(F)c(Cl)c3)c2cc1OCC1(C)COCOC1` returned a melting point of 212 to 213 °C.

The compound `Cc1c(C)c2c(c(C)c1NC(=O)OC(C)(C)C)C(c1ccc(C(C)C)cc1)C(C)(C)O2` (configuration not stated) came in with a melting point of 119 to 120 °C.

For the compound `COC(=O)c1cn(Cc2ccc(OCc3nc(-c4ccccc4)oc3C)cc2)cc1-c1ccccc1`, the melting point fell in the range of 115 to 116 °C.

`COC(=O)c1ccc(CNC(=O)C2Cc3ccccc3N2S(=O)(=O)c2ccc(-c3cccc(C(F)(F)F)c3)cc2)c(OC)c1` (configuration not stated) gave a melting point of 78 to 85 °C.

Consider `CCOCCOc1ccc(C(O)CNC(C)CCc2ccccc2)cc1C(=O)OC` (configuration not stated), for which the melting point was 100 to 101 °C.

Compound `CC1(CCC#N)CCC2OCCOC2CC1=O` (configuration not stated) returned a melting point of 58 to 60 °C.

On to `O=C(N[C@H]1CCN(C(=O)c2cc(C(F)(F)F)cc(C(F)(F)F)c2)[C@H](Cc2ccc(Cl)cc2)C1)c1ccnc2ccccc12`, for which the melting point lay within 204 to 207 °C.

Compound `COc1ccc2cn[nH]c(=O)c2c1` had a melting point of 228 to 229 °C.

Compound `COc1c(Cl)cc(OCC=C(Cl)Cl)cc1C=NO` registered a melting point of 111 °C.

Compound `Cc1ccnc2ccc(C(=O)c3ccc(Cl)cc3)cc12` displayed a melting point of 114 °C.

With `CCOC(=O)c1cn2c3c(c(F)c(F)cc3c1=O)OCC2CO` (configuration not stated), the melting point fell in the range of 268 to 270 °C.

On to `CC(I)CC(F)(F)C(F)(F)C(F)(F)C(F)(F)CC(C)I` (configuration not stated), for which the melting point lay within 35 to 35.5 °C.

`Cc1cc(-c2ccc(C(F)(F)F)cc2)cc(-c2ccnc(-c3ccc(S(N)(=O)=O)s3)n2)n1`: the melting point is more than 250 °C.

The compound `COC(=O)C1=C(C)NC(C)=C(C(=O)OCCOc2cccc(CCNCC(O)COc3ccc(COCCOC(C)C)cc3)c2)C1c1cccc([N+](=O)[O-])c1` (configuration not stated) registered a melting point of 65 to 67 °C.

On to `CS(=O)(=O)c1ccc(-c2nn(Cc3ccccc3)c(=S)cc2-c2ccc(F)cc2)cc1`, for which the melting point is 182 °C.

`CCNCC1CCN(c2c(F)cc3c(=O)c(C(=O)O)cn(C4CC4)c3c2C(F)(F)F)C1` (configuration not stated) returned a melting point of 239 to 241 °C.

Compound `O=C(O)Cn1c(Cc2ccccc2)ccc(NC(=O)CCCc2ccccc2)c1=O` showed a melting point of 159 to 161 °C.

`Cc1c(-c2ccncc2)nc2n(c1=O)CCCN2CC(=O)c1ccccc1` came in with a melting point of 190 to 192 °C.

Consider `Cc1ccc(NC(=O)NN(C(=O)c2ccccc2)C(C)(C)C)cc1`, for which the melting point lay in the range of 208 to 210 °C.

With `CCc1nn(CC(=O)O)c(CC)c1Oc1cc(Cl)cc(Cl)c1`, the melting point was in the range of 157 to 158 °C.

`COc1ccc(N2CCN(c3c(C)c(C)c4c(c3C)C(c3ccc(-c5ccccc5)cc3)C(C)(C)O4)CC2)cc1` (configuration not stated) gave a melting point of 147 to 148 °C.

Compound `Cc1cc(C#N)cc(C(=O)Nc2cccc(C(F)(F)F)c2)n1` gave a melting point of 167 °C.

The compound `O=C1C(c2ccccc2)CC=C2c3ccsc3CCN12` (configuration not stated) gave a melting point of 159 to 161 °C.
